# Results as given in patent US20240041042A1, “1-(PYRIDYL)-5-AZINYLPYRAZOLE DERIVATIVES, AND THEIR USE FOR CONTROL OF UNDESIRED PLANT GROWTH” (Bayer Aktiengesellschaft, priority 2020, published 2024).
# Read-outs that look alike come from different tables or passages of the source.
# Tests used:
# Assay type in all cases: in vivo
# [1] = tested on: Viola tricolor (VIOTR); assay: Pre-emergence herbicidal action against VIOTR
# Summary of the method: (§1)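 Read-out is visual percent damage relative to untreated pots, with 100% meaning dead plants and 0% meaning no difference, assessed roughly three weeks after treatment. Compounds were applied pre-emergence to the covering soil at up to 320 g/ha.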
# [2] = tested on: Setaria viridis (SETVI); assay: Pre-emergence herbicidal action against SETVI; conditions: dosage 320 g/ha
# Summary of the method: as §1
# [3] = tested on: Verconica persica (VERPE); assay: Post-emergence herbicidal action against VERPE
# Summary of the method: (§2)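 Post-emergence greenhouse spray, one-leaf stage, 600 l/ha water plus 0.5% additive; WP or EC formulations; application rates 320 g/ha or lower. Visual % damage vs untreated controls at ~3 weeks.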
# [4] = tested on: Alopecurus myosuroides (ALOMY); assay: Post-emergence herbicidal action against ALOMY; conditions: visual rating about 3 weeks after treatment vs untreated controls (100% = plants have died, 0% = like control plants)
# Summary of the method: as §2
# [5] = tested on: Lolium rigidum (LOLRI); assay: Pre-emergence herbicidal action against LOLRI; conditions: dosage 320 g/ha
# Summary of the method: as §1
# [6] = tested on: Polygonum convolvulus (POLCO); assay: Pre-emergence herbicidal action against POLCO; conditions: dosage 320 g/ha
# Summary of the method: as §1
# [7] = tested on: Matricaria inodora (MATIN); assay: Pre-emergence herbicidal action against MATIN; conditions: dosage 320 g/ha
# Summary of the method: as §1
# [8] = tested on: Amaranthus retroflexus (AMARE); assay: Pre-emergence herbicidal action against AMARE; conditions: visual scoring after about 3 weeks vs untreated controls
# Summary of the method: as §1
# [9] = tested on: Avena fatua (AVEFA); assay: Pre-emergence herbicidal action against AVEFA; conditions: 320 g/ha, visual scoring after about 3 weeks vs untreated controls
# Summary of the method: as §1
# [10] = tested on: Amaranthus retroflexus (AMARE); assay: Post-emergence herbicidal action against AMARE; conditions: 80 g/ha, visual rating about 3 weeks after treatment vs untreated controls (100% = plants have died, 0% = like control plants)
# Summary of the method: as §2
# [11] = tested on: Pharbitis purpurea (PHBPU); assay: Post-emergence herbicidal action against PHBPU
# Summary of the method: as §2
# [12] = tested on: Verconica persica (VERPE); assay: Pre-emergence herbicidal action against VERPE
# Summary of the method: as §1
# [13] = tested on: Polygonum convolvulus (POLCO); assay: Post-emergence herbicidal action against POLCO; conditions: dosage 80 g/ha
# Summary of the method: as §2
# [14] = tested on: Oryza sativa (ORYSA); conditions: pre-emergence, crop plant compatibility, in comparison to untreated controls
# Summary of the method: (§3)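 Scoring: visual, % of untreated control, about 3 weeks after a pre-emergence application to the soil surface. Application used WP or EC formulations diluted in water with 0.5% additive at 600 l/ha; dosage levels are marked by suffixes a, b and c.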
# [15] = tested on: Zea mays (ZEAMX); conditions: pre-emergence, 80 g/ha, crop plant compatibility, in comparison to untreated controls
# Summary of the method: as §3
# [16] = tested on: Alopecurus myosuroides (ALOMY); assay: Pre-emergence herbicidal action against ALOMY; conditions: scored visually after about 3 weeks, 100% = plants have died
# Summary of the method: as §1
# [17] = tested on: Triticum aestivum (TRZAS); conditions: crop plant compatibility, effect vs untreated controls
# Summary of the method: (§4)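 Effects were read visually as % versus untreated controls (0% = no effect, 100% = death) about 3 weeks post-treatment. Application was a post-emergence spray at the one-leaf stage of WP/EC formulations with 0.5% additive at 600 l/ha. Different dosages are denoted a, b and c.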
# [18] = tested on: Oryza sativa (ORYSA); conditions: crop plant compatibility
# Summary of the method: as §4
# [19] = tested on: Zea mays (ZEAMX)
# Summary of the method: as §4
# [20] = tested on: Setaria viridis (SETVI); assay: Post-emergence herbicidal action against SETVI; conditions: dosage 320 g/ha
# Summary of the method: as §2
# [21] = tested on: Avena fatua (AVEFA); assay: Post-emergence herbicidal action against AVEFA; conditions: 320 g/ha, visual rating about 3 weeks after treatment
# Summary of the method: as §2
# [22] = tested on: Echinochloa crus-galli (ECHCG); assay: Pre-emergence herbicidal action against ECHCG; conditions: dosage 320 g/ha
# Summary of the method: as §1
# [23] = tested on: Echinochloa crus-galli (ECHCG); assay: Post-emergence herbicidal action against ECHCG
# Summary of the method: as §2
# [24] = tested on: Viola tricolor (VIOTR); assay: Post-emergence herbicidal action against VIOTR
# Summary of the method: as §2
# [25] = tested on: Abutilon theophrasti (ABUTH); assay: Post-emergence herbicidal action against ABUTH; conditions: visual rating about 3 weeks after treatment vs untreated controls (100% = plants have died, 0% = like control plants)
# Summary of the method: as §2
# [26] = tested on: Pharbitis purpurea (PHBPU); assay: Pre-emergence herbicidal action against PHBPU; conditions: dosage 320 g/ha
# Summary of the method: as §1
# [27] = tested on: Digitaria sanguinalis (DIGSA); assay: Pre-emergence herbicidal action against DIGSA
# Summary of the method: as §1
# [28] = 20 g/ha, effect vs untreated controls
# [29] = 80 g/ha, effect in comparison to untreated controls
Pre-emergence action against ORYSA in % ([14]; 80 g/ha),Pre-emergence action against ZEAMX in % [15],Post-emergence action against TRZAS in % ([17]; 20 g/ha),"Post-emergence action against ORYSA in % [18, 28]","Post-emergence action against ORYSA in % [18, 29]",Compound,"Pre-emergence action against VIOTR in % ([1]; 320 g/ha, Viola tricolor)",Pre-emergence action against SETVI in % [2],Post-emergence action against VERPE in % ([3]; dosage 80 g/ha),Post-emergence action against ALOMY in % ([4]; 80 g/ha),Pre-emergence action against LOLRI in % [5],Pre-emergence action against POLCO in % [6],Pre-emergence action against MATIN in % [7],Pre-emergence action against AMARE in % ([8]; 320 g/ha),Pre-emergence action against AVEFA in % [9],Post-emergence action against AMARE in % [10],Post-emergence action against PHBPU in % ([11]; dosage 80 g/ha),Pre-emergence action against VERPE in % ([12]; dosage 320 g/ha),Pre-emergence action against ALOMY ([16]; 80 g/ha),Pre-emergence action against ALOMY ([16]; 320 g/ha),Post-emergence action against ABUTH in % ([25]; 80 g/ha),also measured
0%,0%,20%,0%,0%,O=C(O)COc1nn(-c2ccccn2)c(-c2ccc(F)nc2)c1C(F)(F)F [Example I-99],90%,90%,80%,90%,100%,90%,90%,90%,90%,80%,80%,90%,80%,100%,,"Post-emergence action against POLCO in % [13]: 90%; Post-emergence action against ZEAMX in % (crop plant compatibility) ([19]; 20 g/ha, ZEAMX, effect in comparison to untreated controls): 0%"
20%,10%,,,10%,CCOC(=O)COc1nn(-c2ncccc2C(F)(F)F)c(-c2cncc(F)c2)c1I [Example I-225],100%,80%,80%,,,90%,80%,100%,90%,,80%,90%,80%,90%,,"Pre-emergence action against VIOTR in % ([1]; dosage 80 g/ha): 90%; Post-emergence action against VERPE in % ([3]; 320 g/ha, VERPE): 90%; Post-emergence action against ALOMY in % ([4]; 320 g/ha): 90%; Post-emergence action against SETVI in % [20]: 80%; Post-emergence action against AVEFA in % [21]: 80%; Pre-emergence action against ECHCG in % [22]: 80%; Post-emergence action against PHBPU in % ([11]; dosage 320 g/ha): 80%; Post-emergence action against ECHCG in % ([23]; dosage 80 g/ha): 80%; Post-emergence action against ECHCG in % ([23]; dosage 320 g/ha): 90%; Pre-emergence action against VERPE in % ([12]; dosage 80 g/ha): 80%; Post-emergence action against VIOTR in % ([24]; 80 g/ha): 80%; Post-emergence action against VIOTR in % ([24]; 320 g/ha): 80%; Post-emergence action against TRZAS in % ([17]; 80 g/ha): 20%; Post-emergence action against ZEAMX in % ([19]; crop plant compatibility, 80 g/ha, effect vs untreated controls): 20%; Post-emergence action against ABUTH in % ([25]; 320 g/ha): 80%"
0%,0%,0%,0%,0%,O=C(O)COc1nn(-c2ccccn2)c(-c2ccc(F)nc2)c1I [Example I-103],90%,90%,80%,,100%,,,90%,80%,80%,80%,90%,,100%,80%,Pre-emergence action against AMARE in % ([8]; 80 g/ha): 80%; Pre-emergence action against PHBPU in % [26]: 80%
0%,,,10%,20%,CCOC(=O)CN(C)S(=O)(=O)NC(=O)COc1nn(-c2ccccn2)c(-c2ccc(F)nc2)c1Br [Example I-120],80%,100%,90%,100%,80%,,,90%,,80%,80%,90%,,80%,80%,"Pre-emergence action against DIGSA in % ([27]; 80 g/ha, visual scoring after about 3 weeks vs untreated controls): 100%; Pre-emergence action against DIGSA in % ([27]; dosage 320 g/ha): 100%; Pre-emergence action against ORYSA in % ([14]; 320 g/ha): 10%"
